One test deals with HLA-A*0202 (Homo sapiens, UniProt P04439, D140Y/D185E/D98H/E176V/E277Q/G131W/G231S/I119L/I121R/I166T/I218V/L180W/L300P/L318F/N151K/N90K/P208A/P217A/Q67R/Q86G/Q94H/R138H/R169H/T345S). As to the kind of experiment: HLA class I binding assay, purified HLA-A*0202. The settings on record: Table XXII, binding affinity.
In the next test the target is HLA-A*0203 (Homo sapiens, UniProt P04439, A173T/D140Y/D185E/D98H/E277Q/G131W/G231S/I119V/I121R/I166T/I218V/L180W/L300P/L318F/N151K/N90K/P208A/P217A/Q86G/Q94H/R138H/R169H/T345S). The experiment in a line: HLA class I binding assay, purified HLA-A*0203. The settings on record: Table XXII, binding affinity.
For the next test, the target named is HLA-A*6802 (Homo sapiens, UniProt P04439, A269V/D140Y/D185E/E176V/E277Q/E87N/F33Y/G231S/I121R/I166T/I218V/L180W/L300P/L318F/N151K/P208A/P217A/Q86R/R138H/R169H/S129P/T345S/V36M). The experiment in a line: HLA class I binding assay, purified HLA-A*6802. The conditions noted are these: Table XXII, binding affinity.
The target of a further test is HLA-A*3101 (Homo sapiens, UniProt P04439, A270S/D185E/E176V/E277Q/F33T/G231S/G80R/H175R/I121M/I218V/I322F/K168Q/L300P/L318F/M331R/P217A/Q94H/R138Q/T323A/T345S/T97I/V358M). As to the kind of experiment: HLA class I binding assay, purified HLA-A*3101. The settings on record: Table XXIII, binding affinity.
Another test deals with HLA-A*3301 (Homo sapiens, UniProt P04439, A270S/D185E/E176V/E277Q/E87N/F33T/G231S/H175R/I121M/I218V/I322F/K168Q/K210R/L300P/L318F/M331R/P217A/Q86R/Q94H/R138Q/T323A/T345S/T97I/V358M/Y195H). As to the kind of experiment: HLA class I binding assay, purified HLA-A*3301. The settings on record: Table XXIII, binding affinity.
The target in the next test is HLA-A*6801 (Homo sapiens, UniProt P04439, A269V/D185E/E176V/E277Q/E87N/F33Y/G231S/I121M/I166T/I218V/L180W/L300P/L318F/N151K/P208A/P217A/Q86R/R169H/T345S). As to the kind of experiment: HLA class I binding assay, purified HLA-A*6801. The conditions noted are these: Table XXIII, binding affinity.
For the next test, the target named is HLA-A*1101 (Homo sapiens, UniProt P04439, A114D/D185E/E176A/F33Y/L180Q/S129P/T187R). The experiment in a line: HLA class I binding assay, purified HLA-A*1101. The conditions noted are these: Table XXIII, binding affinity.
In a further test the target is HLA-A*0206 (Homo sapiens, UniProt P04439, D140Y/D185E/D98H/E176V/E277Q/F33Y/G131W/G231S/I119V/I121R/I166T/I218V/L300P/L318F/N151K/N90K/P208A/P217A/Q86G/Q94H/R138H/R169H/T345S). The experiment in a line: HLA class I binding assay, purified HLA-A*0206. The settings on record: Table XXII, binding affinity.
A further test deals with HLA-A*0201 (Homo sapiens, UniProt P04439, D140Y/D185E/D98H/E176V/E277Q/G131W/G231S/I119V/I121R/I166T/I218V/L300P/L318F/N151K/N90K/P208A/P217A/Q86G/Q94H/R138H/R169H/T345S). As to the kind of experiment: HLA class I binding assay, purified HLA-A*0201. The conditions noted are these: Table XXII, binding affinity.

pIC50: −log10 of the molar value. Where no end group is shown, it is not given here.

For the compound `CC[C@H](C)[C@H](NC(=O)[C@H](CC(C)C)NC(=O)[C@@H](N)CCC(N)=O)C(=O)NCC(=O)N[C@@H](Cc1ccc(O)cc1)C(=O)N[C@H](C(=O)N[C@H](C(=O)NCC(=O)N[C@H](C(=O)O)C(C)C)[C@@H](C)CC)C(C)C` [CEA.78L2V9], the negative logarithm of the IC50 (pIC50) – broadly, the IC50 on a negative log10 scale, so that one unit is a factor of ten – is 8.23 on HLA-A*0202, 8.64 at HLA-A*0203 and 8.64 at HLA-A*6802.
Regarding `CC(C)C[C@H](NC(=O)[C@H](CC(C)C)NC(=O)[C@@H](NC(=O)[C@H](CC(C)C)NC(=O)[C@@H](NC(=O)[C@@H](N)CCCNC(=N)N)C(C)C)[C@@H](C)O)C(=O)N[C@@H](CO)C(=O)N[C@H](C(=O)N[C@H](C(=O)N[C@@H](CCCCN)C(=O)O)[C@@H](C)O)C(C)C` [CEA.376.V2K10], the negative logarithm of the IC50 (pIC50) is 6.79 on HLA-A*3101, less than 5.00 on HLA-A*3301 and 5.24 at HLA-A*6801.
Take `CC(C)[C@H](NC(=O)[C@@H](N)[C@@H](C)O)C(=O)N[C@@H](CO)C(=O)N1CCC[C@H]1C(=O)N[C@@H](CO)C(=O)N[C@@H](Cc1ccc(O)cc1)C(=O)N[C@H](C(=O)N[C@@H](Cc1ccc(O)cc1)C(=O)N[C@@H](Cc1ccc(O)cc1)C(=O)N[C@@H](CCCCN)C(=O)O)[C@@H](C)O` [CEA.419.V2K10]: the pIC50 at HLA-A*1101 is 7.37; on HLA-A*3101 it was 5.43; on HLA-A*3301, less than 5.00; on HLA-A*6801, 8.17.
For the compound `CC[C@H](C)[C@H](N)C(=O)N[C@H](C(=O)N1CCC[C@H]1C(=O)N[C@@H](CO)C(=O)N[C@@H](Cc1ccc(O)cc1)C(=O)N[C@H](C(=O)N[C@@H](Cc1ccc(O)cc1)C(=O)N[C@@H](Cc1ccc(O)cc1)C(=O)N[C@@H](CCCCN)C(=O)O)[C@@H](C)O)C(C)C` [CEA.420.V2K9], the pIC50 on HLA-A*3101 was 6.14; at HLA-A*3301, 5.36; on HLA-A*6801, 7.66.
Consider `CC(C)C[C@H](NC(=O)[C@@H](NC(=O)[C@@H](N)CCCNC(=N)N)C(C)C)C(=O)N[C@H](C(=O)N[C@@H](CC(C)C)C(=O)N[C@@H](Cc1ccccc1)C(=O)N[C@@H](CC(N)=O)C(=O)N[C@H](C(=O)N[C@H](C(=O)N[C@@H](CCCCN)C(=O)O)[C@@H](C)O)C(C)C)[C@@H](C)O` [CEA.554.V42K10], for which the pIC50 on HLA-A*1101 is 7.49; at HLA-A*3101, 6.63; on HLA-A*3301 it was less than 5.00; on HLA-A*6801, 5.63.
`CC[C@H](C)[C@H](NC(=O)CNC(=O)[C@H](CS)NC(=O)[C@H](CC(C)C)NC(=O)[C@@H](N)Cc1ccc(O)cc1)C(=O)N[C@@H](CCC(N)=O)C(=O)N[C@@H](CC(N)=O)C(=O)N[C@@H](CO)C(=O)N[C@H](C(=O)O)C(C)C` [CEA.569L2]: the negative-log IC50 (pIC50) at HLA-A*0202 was 7.62; at HLA-A*0206, 7.51; at HLA-A*6802, 5.46.
Take `CC(C)C[C@H](NC(=O)[C@H](CC(N)=O)NC(=O)[C@H](CO)NC(=O)[C@@H](NC(=O)[C@@H](N)Cc1ccccc1)C(C)C)C(=O)N[C@@H](C)C(=O)N[C@H](C(=O)NCC(=O)N[C@@H](CCCCN)C(=O)O)[C@@H](C)O` [CEA.656.K9]: the pIC50 at HLA-A*1101 is 6.68; on HLA-A*3101, less than 5.00; on HLA-A*3301, less than 5.00; on HLA-A*6801 it was 8.28.
Consider `CC[C@H](C)[C@H](NC(=O)CNC(=O)[C@@H](NC(=O)[C@H](CC(C)C)NC(=O)[C@H](C)N)C(C)C)C(=O)N[C@@H](CCSC)C(=O)N[C@H](C(=O)NCC(=O)N[C@H](C(=O)O)C(C)C)[C@@H](C)CC` [CEA.687L2], for which the negative-log IC50 (pIC50) at HLA-A*0201 was 8.00; at HLA-A*0202, 7.20; on HLA-A*0203, 7.51; at HLA-A*0206, 7.00; at HLA-A*6802, 6.99.
`CC[C@H](C)[C@H](N)C(=O)N[C@@H](CC(C)C)C(=O)N[C@H](C(=O)NCC(=O)N[C@H](C(=O)N[C@@H](CC(C)C)C(=O)N[C@H](C(=O)NCC(=O)N[C@H](C(=O)O)C(C)C)C(C)C)C(C)C)[C@@H](C)CC` [CEA.691L2]: the pIC50 at HLA-A*0201 was 7.66; at HLA-A*0202, 8.10; at HLA-A*0203, 8.49; at HLA-A*6802 it was 6.80.
In the case of TVSPLNTSYK [CEA.241.V2K10], the pIC50 was 8.22 on HLA-A*1101, less than 5.00 at HLA-A*3101, less than 5.00 at HLA-A*3301 and 8.14 on HLA-A*6801.

(Values after patent US20040146519A1, “Inducing cellular immune responses to carcinoembryonic antigen using peptide and nucleic acid compositions” (priority 2002, published 2004).)
